Results from PMC8565515, “Dasabuvir Inhibits Human Norovirus Infection in Human Intestinal Enteroids” (mSphere, 2021).
Where a name gives a salt, the structure may show the parent alone. Read-outs that look alike come from different tables or passages of the source.

Key:
GII.4 HuNoV = GII.4 HuNoV infection of HIE monolayers, viral genome equivalents by RT-qPCR; assay type: cell-based, human norovirus; settings: compound 10 μM, n = 1, J2 HIE monolayers, GII.4 HuNoV, 24 hpi, normalized to DMSO control; for activity at 10 µM: Norovirus, 24 h, read-out: (%) HuNoV GEs

Row | SMILES | activity at 10 µM (GII.4 HuNoV) [%] | (%) Cytotoxicity (J2 HIE monolayers; human, 24 h, 10 μM) [%] | (%) HuNoV GEs (GII.4 HuNoV) [%] | (%) Cytotoxicity (J2 HIE monolayers) [%]
1 | CC(C)CN(C[C@@H](O)[C@H](Cc1ccccc1)NC(=O)O[C@H]1CCOC1)S(=O)(=O)c1ccc(N)cc1 [Amprenavir] | 15.9 | -0.21 |  | 
2 | O=C(O)c1cc(=O)[nH]c(=O)[nH]1 [Orotic acid] | 52.6 | 0.45 |  | 
3 | COc1cc(NC(=O)Nc2cccc(CNC(=O)O[C@H]3CCOC3)c2)ccc1-c1cnco1 [Merimepodib] | 17 | 0.74 |  | 
4 | Cc1c(O)cccc1C(=O)N[C@@H](CSc1ccccc1)[C@H](O)CN1C[C@H]2CCCC[C@H]2C[C@H]1C(=O)NC(C)(C)C [Nelfinavir Mesylate] | 39.7 | 4.06 |  | 
5 | Nc1ncnc2c1ncn2[C@@H]1O[C@H](CO)[C@@H](O)[C@@H]1O [Vidarabine] | 51.4 | -2.58 |  | 
6 | CC1(C)S[C@@H]2[C@H](NC(=O)[C@H](N)c3ccccc3)C(=O)N2[C@H]1C(=O)O [Ampicillin Trihydrate] | 100 | 1.14 |  | 
7 | Nc1ccn([C@@H]2O[C@H](CO)[C@@H](O)[C@@H]2O)c(=O)n1 [Cytarabine] | 31.3 | -0.77 |  | 
8 | Cc1nc(Nc2ccc(F)cc2)nc(N2CCc3ccccc3C2C)c1C (stereo not drawn) [Revaprazan hydrochloride] | 214 | 0.20 |  | 
9 | CCOC(=O)c1ccc(OCCC2CCN(c3ccc(C)nn3)CC2)cc1 [Pirodavir] | 50.5 | -3.64 |  | 
10 | O=c1[nH]cnc2c1ncn2[C@H]1CC[C@@H](CO)O1 [Didanosine] | 52.8 | -0.0652 |  | 
11 | Cc1cccc(C)c1N(CC(=O)Nc1ccc(-c2ncon2)cc1)C(=O)C1CCS(=O)(=O)CC1 [Amenamevir] | 61.7 | 0.09 |  | 
12 | COc1cnc(-n2cnc(C)n2)c2c1c(C(=O)C(=O)N1CCN(C(=O)c3ccccc3)CC1)cn2COP(=O)(O)O [Fostemsavir] | 87.3 | -2.34 |  | 
13 | CO/N=C(\C(=O)N[C@@H]1C(=O)N2C(C(=O)O)=C(C[N+]3(C)CCCC3)CS[C@H]12)c1csc(N)n1 [Cefepime Dihydrochloride Monohydrate] | 116 | 3.73 |  | 
14 | CC(C)[C@H](N)C(=O)OCCOCn1cnc2c(=O)[nH]c(N)nc21 [Valacyclovir hydrochloride] | 22.4 | 0.09 |  | 
15 | O=c1[nH]c(=O)n([C@H]2C[C@H](O)[C@@H](CO)O2)cc1I [Dendrid] | 67.3 | -0.36 |  | 
16 | Clc1ccccc1C(c1ccccc1)(c1ccccc1)n1ccnc1 [Clotrimazole] | 159 | 0.51 |  | 
17 | O[C@H]1[C@H](O)[C@@H](O)[C@H](O)[C@@H](O)[C@H]1O [Inositol] | 44.9 | 2.88 |  | 
18 | CCOC(=O)c1cccc(NC(=O)CCn2nc(C)c(S(=O)(=O)N3CCCCC3)c2C)c1 [G402-0849] |  |  | 158.24 | 1.12
19 | Nc1nc2c(ncn2CCC(CO)CO)c(=O)[nH]1 [Penciclovir] | 22.1 | 2.02 |  | 
20 | Cc1cn([C@H]2O[C@@H](CO)[C@H](O)[C@H]2F)c(=O)[nH]c1=O [Clevudine] | 33.8 | -0.09 |  | 
21 | CN(C)CC[C@@H](c1ccc(Cl)cc1)c1ccccn1 [Dexchlorpheniramine Maleate] | 63.6 | -3.40 |  | 
22 | O=C1Nc2ccc(Cl)cc2[C@@](C#CC2CC2)(C(F)(F)F)O1 [Efavirenz] | 135 | 1.69 |  | 
23 | C[C@@H]1CC[C@H]2[C@@H](C)C(=O)O[C@@H]3O[C@@]4(C)CC[C@@H]1[C@]32OO4 [Artemisinin] | 51.7 | 1.63 |  | 
24 | CC[C@@H](CO)NCCN[C@@H](CC)CO [Ethambutol dihydrochloride] | 100 | 0.23 |  | 
